Reference: patent US8106086B2, “Indoledione derivative” (MSD K.K., priority 2007, dated 2012)

How the values were obtained:
[1] = biological target: T1, intracellular LCE in H2.35 cells originating in mouse liver (Mus musculus, UniProt Q920L5); assay: Intracellular LCE activity inhibition test; format: cell-based; conditions: [14C]-palmitoyl CoA, C18/C16 ratio by radio HPLC
T1 construct: endogenous in cells; host or cells: H2.35 mouse liver cells
T1 sequence (Q920L5 1-267): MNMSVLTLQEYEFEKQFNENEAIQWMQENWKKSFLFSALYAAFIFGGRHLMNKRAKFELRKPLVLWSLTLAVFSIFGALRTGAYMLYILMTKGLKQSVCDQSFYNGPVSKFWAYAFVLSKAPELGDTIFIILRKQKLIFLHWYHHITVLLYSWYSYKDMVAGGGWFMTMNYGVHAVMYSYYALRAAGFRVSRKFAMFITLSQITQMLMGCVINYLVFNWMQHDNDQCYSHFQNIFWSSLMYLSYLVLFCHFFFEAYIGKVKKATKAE
Method: Cultured H2.35 cells originating in mouse liver were maintained in DMEM (GIBCO) containing 4% calf serum and 200 nM dexamethasone and cultured at 33° C. in the presence of 5% CO2. About 2.5×10^5 H2.35 cells were pipetted into a 24-well cell culture plate (Corning, 24-Well Cell Culture Cluster) and cultured overnight at 33° C. in the presence of 5% CO2. […] After culturing for 1 hour at 33° C. in the presence of 5% CO2, [^14C]-palmitoyl CoA (2.13 GBq/mmol, manufactured by Perkin Elmer) was added to each well and culture was conducted for additional 4 hours at 33° C. in the presence of 5% CO2. Next, each well was washed with ice-cooled phosphate-buffered physiological saline and 250 μl of 2M sodium hydroxide was added to cease the reaction. Then, the reaction solution in each well was transferred into a glass test tube and incubated at 70° C. for 1 hour. After adding 100 μl of a 5N hydrogen chloride solution, fatty acids were extracted with petroleum ether. Then [^14C]-labeled fatty acids were quantified by radio HPLC and the ratio of the amount of fatty acids having carbon chains consisting of 18 carbon atoms to the amount of those having carbon chains consisting of 16 carbon atoms (C18/C16 ratio) was calculated. The intracellular LCE inhibition activity of the test compound was calculated, based on the C18/C16 ratio of the well containing test compound-free DMSO as a control.

human LCE = biological target: T2, human LCE (Homo sapiens, UniProt Q9H5J4); assay: LCE enzyme activity inhibition test; format: biochemical; conditions: palmitoyl CoA and [14C]-malonyl CoA, 37° C. for 90 minutes
T2 sequence (Q9H5J4 1-265): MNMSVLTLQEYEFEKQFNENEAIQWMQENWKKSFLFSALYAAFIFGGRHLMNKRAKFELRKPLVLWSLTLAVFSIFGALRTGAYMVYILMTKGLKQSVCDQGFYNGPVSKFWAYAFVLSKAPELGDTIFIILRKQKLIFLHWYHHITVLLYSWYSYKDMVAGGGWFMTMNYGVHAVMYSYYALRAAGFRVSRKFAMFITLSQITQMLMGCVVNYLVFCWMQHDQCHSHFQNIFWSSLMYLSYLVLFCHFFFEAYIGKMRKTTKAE
Method: The LCE enzyme activity inhibition test was carried out according to a modification of the method of Moon et al., J. Biol. Chem., Vol. 276, pp. 45358 to 45366 (2001). Namely, 1.0 μl of the diluted test compound was added to each well of a 96-well assay plate (Corning, 96-Well Assay Block). Next, 50 μl of a phosphate buffer solution (100 mM potassium phosphate buffer solution, pH 6.5) and 25 μl of a substrate solution (in 100 mM potassium phosphate buffer solution (pH 6.5), 4.0 μM rotenone, 80 μM fatty acid-free bovine serum albumin, 160 μM palmitoyl CoA, 80 μM malonyl CoA, 3.5 μM [^14C]-malonyl CoA (1.92 GBq/mmol, manufactured by Amersham) were added to each well. Further, 25 μl of an enzyme solution (in 100 mM potassium phosphate buffer solution (pH 6.5), 100 μg/ml human LCE) was added thereto. Then, the upper side of the plate was sealed up, and the plate was incubated with gently stirring at 37° C. for 90 minutes. Subsequently, 100 μl of 5 N HCl was added to each well. The reaction was ceased by stirring the assay plate at room temperature for 5 minutes and acyl CoA was hydrolyzed. Subsequently, the enzyme reaction solution in each well was adsorbed by each well of a 96-well GF/C filter plate (Perkin Elmer Unifilter 96GF/C) through which water had been preliminarily passed. After washing each well with water to remove unabsorbed malonyl CoA, the GF/C filter plate was dried at 50° C. for 60 minutes. Next, 30 μl of a scintilator (Perkin Elmer, Microschinti 0) was added to each well and the upper side of the plate was sealed up. The radioactivity of the thus fixed [^14C] was measured with a microplate scintillation counter (Perkin Elmer, Topcount) and the obtained value was referred to as the enzyme activity. The human LCE enzyme inhibition activity of the test compound was calculated, based on the radioactivity of the well containing test compound-free DMSO as a control.

[2] = activity of the optically resolved components of Production Example 1 (test not stated); conditions: fractions from optical resolution on CHIRALPAK AD-H

Structure (SMILES)	IC50 [1] [nM]	IC50 (human LCE) [nM]	identified as being active [2]
Cc1[nH]n(-c2ccc(OC(C)C)cc2)c(=O)c1C1(C(F)(F)F)C(=O)N(c2ccccc2)C2=C1C(=O)CC(C)(C)C2 (centres unmarked) [Production Example 40, 3-[2,5-dihydro-1-(4-isopropoxyphenyl)-3-methyl-5-oxo-1H-pyrazol-4-yl]-3,5,6,7-tetrahydro-6,6-dimethyl-1-phenyl-3-trifluoromethyl-1H-indole-2,4-dione]	38	30	
Cc1[nH]n(-c2ccc(-c3ccccc3)cc2)c(=O)c1C1(C(F)(F)F)C(=O)N(c2ccccc2)C2=C1C(=O)CC(C)(C)C2 (centres unmarked) [Production Example 42, 3-[2,5-dihydro-3-methyl-5-oxo-1-(biphenyl-4-yl)-1H-pyrazol-4-yl]-3,5,6,7-tetrahydro-6,6-dimethyl-1-phenyl-3-trifluoromethyl-1H-indole-2,4-dione]	25	22	
Cc1[nH]n(-c2ccccc2)c(=O)c1C1(C(F)(F)F)C(=O)N(c2ccccc2)C2=C1C(=O)CC(C)(C)C2 (centres unmarked) [3-(2,5-dihydro-3-methyl-5-oxo-1-phenyl-1H-pyrazol-4-yl)-3,5,6,7-tetrahydro-6,6-dimethyl-1-phenyl-3-trifluoromethyl-1H-indole-2,4-dione]			active
Cc1[nH]n(-c2ccc(S(C)(=O)=O)cc2)c(=O)c1C1(C(F)(F)F)C(=O)N(c2ccccc2)C2=C1C(=O)CC(C)(C)C2 (centres unmarked) [Production Example 44, 3-[2,5-dihydro-3-methyl-(4-methylsulfonylphenyl)-5-oxo-1H-pyrazol-4-yl]-3,5,6,7-tetrahydro-6,6-dimethyl-1-phenyl-3-trifluoromethyl-1H-indole-2,4-dione]	7	8.9	

More lines, main results first:

IC50 [1] [nM]	IC50 (human LCE) [nM]	Structure (SMILES)	identified as being active [2]
3.1		COc1ccc(-n2[nH]c(C)c(C3(C(F)(F)F)C(=O)N(c4ccccc4)C4=C3C(=O)CC(C)(C)C4)c2=O)cc1 (centres unmarked) [Production Example 26, 3-[2,5-dihydro-1-(4-methoxyphenyl)-3-methyl-5-oxo-1H-pyrazol-4-yl]-3,5,6,7-tetrahydro-6,6-dimethyl-1-phenyl-3-trifluoromethyl-1H-indole-2,4-dione]	
5.4		Cc1[nH]n(-c2ccc(C#N)cc2)c(=O)c1C1(C(F)(F)F)C(=O)N(c2ccccc2)C2=C1C(=O)CC(C)(C)C2 (centres unmarked) [Production Example 31, 3-[1-(4-cyanophenyl)-2,5-dihydro-3-methyl-5-oxo-1H-pyrazol-4-yl]-3,5,6,7-tetrahydro-6,6-dimethyl-1-phenyl-3-trifluoromethyl-1H-indole-2,4-dione]	
4.2	15	Cc1[nH]n(-c2ccc(C(C)(C)C)cc2)c(=O)c1C1(C(F)(F)F)C(=O)N(c2ccccc2)C2=C1C(=O)CC(C)(C)C2 (centres unmarked) [Production Example 35, 3-[1-(4-tert-butylphenyl)-2,5-dihydro-3-methyl-5-oxo-1H-pyrazol-4-yl]-3,5,6,7-tetrahydro-6,6-dimethyl-1-phenyl-3-trifluoromethyl-1H-indole-2,4-dione]	
0.6		Cc1[nH]n(-c2ccc(OC(F)(F)F)cc2)c(=O)c1C1(C(F)(F)F)C(=O)N(c2ccccc2)C2=C1C(=O)CC(C)(C)C2 (centres unmarked) [Production Example 36, 3-[2,5-dihydro-3-methyl-5-oxo-1-(4-trifluoromethoxyphenyl)-1H-pyrazol-4-yl]-3,5,6,7-tetrahydro-6,6-dimethyl-1-phenyl-3-trifluoromethyl-1H-indole-2,4-dione]	
1.2	23	Cc1[nH]n(-c2ccc(C(F)(F)F)cc2)c(=O)c1C1(C(F)(F)F)C(=O)N(c2ccccc2)C2=C1C(=O)CC(C)(C)C2 (centres unmarked) [Production Example 29, 3-[2,5-dihydro-3-methyl-5-oxo-1-(4-trifluoromethylphenyl)-1H-pyrazol-4-yl]-3,5,6,7-tetrahydro-6,6-dimethyl-1-phenyl-3-trifluoromethyl-1H-indole-2,4-dione]	
